Assay results from US10138212B2, “Aminoquinazoline compounds as A2A antagonist” (Merck Sharp & Dohme Corp., priority 2015, dated 2018).

Assays:
[1] = target: human A1 receptor (Homo sapiens (Human), UniProt P30542); assay: A1 competition binding assay using Scintillation Proximity technology; selectivity = A1 binding Ki / A2a binding Ki; conditions: A1 binding Ki divided by A2a binding Ki
Procedure, shortened: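 SPA competition using 5 ug membranes from CHO-K1 cells expressing human A1, pretreated with adenosine deaminase. Radioligand was 0.7 nM [3H]DPCPX (final), with compound at 3000–0.15 nM in DPBS + 10 mM MgCl2. Incubation was 1 h at room temperature. Non-specific binding was defined with 1 uM DPCPX, and Ki was derived as for A2a.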

[2] = target: human A2a receptor (Homo sapiens (Human), UniProt P29274); assay: A2a competition binding assay using Scintillation Proximity technology
Procedure, shortened: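 Membranes (0.25 or 1 μg) from HEK293 expressing the receptor were pretreated with adenosine deaminase and bound to WGA-coated yttrium silicate SPA beads. They were incubated 1 h at room temperature with compound at 3000–0.15 nM and 0.5 nM tritiated pyrazolotriazolopyrimidine ligand in Ca/Mg-free DPBS with 10 mM MgCl2. Ki was derived from […] by Cheng-Prusoff.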

[3] = 0.25 μg of membranes from HEK293 cells expressing the human A2a receptor
[4] = * assay run with 1 μg of membranes versus 0.25 μg, HEK293 cells expressing the human A2a receptor

human A1 receptor, sequence (P30542 whole entry): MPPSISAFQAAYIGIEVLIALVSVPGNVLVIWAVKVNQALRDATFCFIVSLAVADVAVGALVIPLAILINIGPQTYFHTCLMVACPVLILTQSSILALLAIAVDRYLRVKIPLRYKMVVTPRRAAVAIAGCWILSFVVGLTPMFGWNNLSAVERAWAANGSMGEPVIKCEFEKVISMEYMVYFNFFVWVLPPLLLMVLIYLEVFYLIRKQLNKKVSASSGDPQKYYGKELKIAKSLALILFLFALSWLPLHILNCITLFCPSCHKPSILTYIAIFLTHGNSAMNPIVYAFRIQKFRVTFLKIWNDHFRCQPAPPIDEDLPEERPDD
human A2a receptor, sequence (P29274 whole entry): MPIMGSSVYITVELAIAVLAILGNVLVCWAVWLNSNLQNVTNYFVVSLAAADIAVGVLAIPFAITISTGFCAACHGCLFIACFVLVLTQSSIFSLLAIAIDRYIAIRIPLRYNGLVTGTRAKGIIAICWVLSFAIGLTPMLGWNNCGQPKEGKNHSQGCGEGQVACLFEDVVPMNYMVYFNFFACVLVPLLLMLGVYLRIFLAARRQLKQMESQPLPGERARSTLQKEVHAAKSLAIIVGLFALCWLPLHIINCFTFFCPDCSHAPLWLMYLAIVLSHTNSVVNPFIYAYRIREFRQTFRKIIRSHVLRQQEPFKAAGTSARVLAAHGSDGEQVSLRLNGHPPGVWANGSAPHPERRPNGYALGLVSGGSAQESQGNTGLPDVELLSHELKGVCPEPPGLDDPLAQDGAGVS

Compound: Cc1ccc(CNC(=O)c2nc(N)nc3c(F)cccc23)nc1 [Example 72, 2-amino-8-fluoro-N-[(5-methyl-2-pyridyl)methyl]quinazoline-4-carboxamide]
- A2a selectivity (A2a A1 binding selectivity) [1]: 30
- Ki [2, 3]: 6.1 nM

Compound: Nc1nc(C(=O)NCc2cc(C3CC3)on2)c2cccc(F)c2n1 [Example 83, 2-amino-N-[(5-cyclopropylisoxazol-3-yl)methyl]-8-fluoro-quinazoline-4-carboxamide]
- A2a selectivity (A2a A1 binding selectivity) [1]: 3
- Ki [2, 3]: 14 nM

Compound: CC(C)Oc1cccc(CNC(=O)c2nc(N)nc3c(F)cccc23)n1 [Example 78, 2-amino-8-fluoro-N-[(6-isoppropoxy-2-pyridyl)methyl]quinazoline-4-carboxamide]
- A2a selectivity (A2a A1 binding selectivity) [1]: 75
- Ki [2, 3]: 1 nM

Compound: COc1cccc2c(C(=O)NC3CCc4ccccc4C3)nc(N)nc12 (stereo not drawn) [Example 34, 2-amino-8-methoxy-N-[2-tetralin-2-yl]quinazoline-4-carboxamide]
- A2a selectivity (A2a A1 binding selectivity) [1]: 46
- Ki [2, 3]: 20 nM

Compound: [2H]C([2H])(NC(=O)c1nc(N)nc2c(OC)cccc12)c1cccc(C([2H])([2H])c2cncc(N3CCOCC3)c2)n1 [Example 110, 2-amino-N-[dideuterio-[6-[dideuterio-(5-morpholino-3-pyridyl)methyl]-2-pyridyl]methyl]-8-methoxy-quinazoline-4-carboxamide]
- A2a selectivity (A2a A1 binding selectivity) [1]: 64
- Ki [2, 4]: 2.5 nM

Compound: COc1cccc2c(C(=O)NCc3cccc(-c4ccccn4)n3)nc(N)nc12 [Example 10, 2-amino-8-methoxy-N-[[6-(2-pyridyl)-2-pyridyl]methyl]quinazoline-4-carboxamide]
- A2a selectivity (A2a A1 binding selectivity) [1]: 113
- Ki [2, 3]: 1.2 nM

Compound: COc1cccc2c(C(=O)NCc3ncccc3F)nc(N)nc12 [Example 25, 2-amino-N-[(3-fluoro-2-pyridyl)methyl]-8-methoxy-quinazoline-4-carboxamide]
- A2a selectivity (A2a A1 binding selectivity) [1]: 221
- Ki [2, 3]: 1.4 nM

Compound: Nc1nc(C(=O)NCc2cccc(Cc3ccncc3)n2)c2cccc(F)c2n1 [Example 112, 2-amino-8-fluoro-N-[[6-(4-pyridylmethyl)-2-pyridyl]methyl]quinazoline-4-carboxamide]
- A2a selectivity (A2a A1 binding selectivity) [1]: 31
- Ki [2, 3]: 1.6 nM

Compound: Nc1nc(C(=O)NCc2cccc(-c3cnco3)n2)c2cccc(F)c2n1 [Example 70, 2-amino-8-fluoro-N-[(6-oxazol-5-yl-2-pyridyl)methyl]quinazoline-4-carboxamide]
- A2a selectivity (A2a A1 binding selectivity) [1]: 19
- Ki [2, 3]: 4.5 nM

Compound: Cc1ccc(F)c(CNC(=O)c2nc(N)nc3c(-c4ncco4)cccc23)n1 [Example 98, 2-amino-N-[(3-fluoro-6-methyl-2-pyridyl)methyl]-8-oxazol-2-yl-quinazoline-4-carboxamide]
- A2a selectivity (A2a A1 binding selectivity) [1]: 133
- Ki [2, 3]: 1.7 nM

Compound: C[C@@H](NC(=O)c1nc(N)nc2c(F)cccc12)c1cccc2cccnc12 [Example 88, 2-amino-8-fluoro-N-[(1R)-1-(8-quinolyl)ethyl]quinazoline-4-carboxamide]
- A2a selectivity (A2a A1 binding selectivity) [1]: 8
- Ki [2, 3]: 6.7 nM

Compound: Cc1ccc(-c2cccnc2CNC(=O)c2nc(N)nc3c(F)cccc23)nc1 [Example 68, 2-amino-8-fluoro-N-[[3-(5-methyl-2-pyridyl)-2-pyridyl]methyl]quinazoline-4-carboxamide]
- A2a selectivity (A2a A1 binding selectivity) [1]: 44
- Ki [2, 4]: 9.1 nM

Compound: CC(C)c1cccc(-c2cccc(CNC(=O)c3nc(N)nc4c(F)cccc34)n2)c1 [Example 65, 2-amino-8-fluoro-N-[[6-(3-isopropylphenyl)-2-pyridyl]methyl]quinazoline-4-carboxamide]
- A2a selectivity (A2a A1 binding selectivity) [1]: 50
- Ki [2, 3]: 1 nM

Compound: COC(=O)c1cccc(CNC(=O)c2nc(N)nc3c(F)cccc23)n1 [Example 75, methyl 6-[[(2-amino-8-fluoro-quinazoline-4-carbonyl)amino]methyl]pyridine-2-carboxylate]
- A2a selectivity (A2a A1 binding selectivity) [1]: 14
- Ki [2, 4]: 23 nM

Compound: COc1cccc2c(C(=O)NCc3nc(C)ccc3C)nc(N)nc12 [Example 11, 2-amino-N-[(3,6-dimethyl-2-pyridyl)methyl]-8-methoxy-quinazoline-4-carboxamide]
- A2a selectivity (A2a A1 binding selectivity) [1]: 208
- Ki [2, 3]: 0.2 nM
